The source of these data is patent US5486508A, “Cyclodextrin composition” (TAKEDA Chemical Industries Ltd., priority 1991, dated 1996).

In brackets after ≈: the same amount, converted by molar mass. Like-named read-outs stand apart in the source and are kept apart here.

A short description of data set [1]: Solubility of diazepam or clofibrate complex with G2 βCD versus drug alone. The text has this: The solubility of the complex was compared with that of the drug alone.
Data set [2] in a line: Stability of powders at 40° C. for 2 weeks (residual amount of Compound A by HPLC). It is filed as physicochemical. The conditions noted are these: powder storage, 336 h. The method, then: The residual amounts of Compound A was determined by HPLC.
For data set [3] the following is noted: water. As for the experimental part: (§1) The aqueous solution was added to the above ethyl alcohol solution with stirring. The solution thus obtained was lyophilized to obtain a powder.
(§2) After 4 hours, the mixture was filtered through a filter having pore size of 0.22 μm.

The conditions of data set [4]: water. The method, then:
as §1, §2
The source holds these as a separate data set.

The molecule `CCOC(=O)C(C)(C)Oc1ccc(Cl)cc1` [Clofibrate, clofibrate] came in with a solubility in data set [1] of 36 µg/mL (≈ 148 µM).
Consider `CO[C@@H]1[C@H](OC(=O)NC(=O)CCl)CC[C@]2(CO2)[C@H]1[C@@]1(C)O[C@@H]1CC=C(C)C` [Compound A, 6-O-(N-chloroacetylcarbamoyl)fumagillol], for which the “Stability, Residual rate” value in data set [2] stood at 81.4%. The “Comparison of solubilities (solubility concentration of Compound A)” value in data set [3] and in data set [4] was 1700 µg/mL each time.
